According to patent publication US8532742B2, “System and method for simultaneous 3DPR device tracking and imaging under MR-guidance for therapeutic endovascular interventions” (Wisconsin Alumni Research Foundation, priority 2006, dated 2013):

Legend:
[1] = Diffusion of a fluorescent probe in swollen gelatin gel by FRAP; type: physicochemical; settings: coating thickness 60 μm, diffusion coefficient 9×10-12 m2s-1
Excerpt: To assess the stability of DTPA[Gd(III)] in the gelatin coating, the diffusion of a fluorescence probe in gelatin was studied by the technique of fluorescence recovery after photobleaching (FRAP). The instrument and data analysis scheme are described in Kim, S. H. and Yu, H., J. Phys. Chem. 1992, 96, 4034, which is hereby fully incorporated by reference. Fluorescein was used as the fluorescence probe due, in part, to its molecular size being roughly the same as that of DTPA[Gd(III)]. The focus of the study was to examine the possible retardation effects of gelatin concentration and cross-link density on the diffusion, which was determined at room temperature, i.e., below the gel point of gelatin. The diffusion of fluorescein probe slows down with the increase of gelatin concentration. The diffusion coefficient decreases from 1.5×10-10 to 9×10-12 […]-1 when the concentration of gelatin increases from 9% to 40%. […] Accordingly, the probe diffusion is more likely controlled by the concentration of gelatin rather than the cross-link density. On the other hand, the cross-link density may determine the swelling ratio of gelatin, i.e., the concentration of gelatin in aqueous solution. […]

[2] = MR visibility test of gelatin/DTPA[Gd(III)] coating on PE rod in saline and yogurt (Example 14); settings: soaked in water for 12 hours before MRI test
Protocol: Samples having the above formulations were transferred to a glass tube and kept in a water bath at 35° C. A bare PE rod (5 cm in length) was then dipped into the solution, and then removed. The rod was then cooled to room temperature to allow chill-setting of the gelatin solution and to form the coating on the rod surface. The same procedure was repeated to overcoat additional layers of gel. The final dry thickness of gel-coating was about 60 μm.
The gelatin coatings were dried in air while being chemically cross-linked by BVSM. The dried and cross-linked samples were then soaked in distilled water for 12 hours. Soaking each sample in distilled water may remove the DTPA[Gd(III)] that was not physically or chemically constrained by the cross-linked network of gelatin overcoat. Because the DTPA[Gd(III)] complexes were not chemically linked to the gelatin chains, most of them would be expected to diffuse out of the coating when soaked in water, whereas some of DTPA[Gd(III)] may be confined by the crystal domains in gelatin or by hydrogen bonding between gelatin chains and DTPA. In any event, after the soaking, the gelatin coating was dried again in air before MRI test.
The MR visibility of the samples prepared as outlined above, was tested in two media: saline and yogurt. […]

| SMILES | time to diffuse out of the gelatin coating [1] | retention of complex in gelatin gel after soaking [2] |
| --- | --- | --- |
| O=C(O)CN(CCN(CC(=O)O)CC(=O)O)CCN(CC(=O)O)CC(=O)O [DTPA, diethylenetriaminepentaacetic acid] | about 67 seconds |  |
| O=C([O-])CN(CCN(CC(=O)[O-])CC(=O)O)CCN(CC(=O)[O-])CC(=O)O.[Gd+3] [DTPA[Gd(III)], gadolinium-diethylene triamine pentaacetic acid] |  | some fraction of DTPA[Gd(III)] remained in the gel |
